# Assay results from patent publication US11786537B2 (priority 2022, dated 2023).
# Entries after “also recorded” stand apart in the source; their conditions may differ.
# Tests used:
# VERO-E6 cells = assay: MTT cytotoxicity assay (CC50); assay type: cell-based; details: 24 h, in words
# Method: To assess the half maximal cytotoxic concentration (CC50), stock solutions of the test compounds were prepared in 10% DMSO in ddH2O and diluted further to the working solutions with DMEM. The cytotoxic activity of the extracts was tested in VERO-E6 cells by using the 3-(4,5-dimethylthiazol-2-yl)-2,5-diphenyltetrazolium bromide (MTT) method with minor modifications. Briefly, the cells were seeded in 96 well-plates (100 μl/well at a density of 3×10^5 cells/ml) and incubated for 24 h at 37° C. in 5% CO2. After 24 h, cells were treated with various concentrations of the tested compounds in triplicates. 24 h later, the supernatant was discarded, and cell monolayers were washed with sterile 1× phosphate buffer saline (PBS) 3 times and MTT solution (20 μl of 5 mg/ml stock solution) was add to each well and incubated at 37° C. for 4 h followed by medium aspiration. In each well, the formed formazan crystals were dissolved with 200 μl of acidified isopropanol (0.04 M HCl in absolute isopropanol=0.073 ml HCL in 50 ml isopropanol). Absorbance of formazan solutions was measured at λ max 540 nm with 620 nm as a reference wavelength using a multi-well plate reader. […]
# [1] = test system: SARS-CoV-2 (hCoV-19/Egypt/NRC-03/2020); assay type: cell-based
Substance,toxicity (VERO-E6 cells),antiviral activity against SARS-CoV-2 [1],inhibitory effect / viral inhibition [1]
"4,4-bis[(dimethylamino)methoxy]-7,7′-dihexyl-10,10′-dimethyl-3,3′-bis(4-nitrophenyl)-8,8′-dioxo-4,4′-spirobi[5-oxa-2,7-diaza-3-azonia-4λ^6-cuprabicyclo[4.4.0]deca-1(6),2,9-triene]-9,9′-dicarbonitrile [Complex D1]",low toxicity,active antiviral activity; also recorded: significant antiviral activity,somewhat higher inhibitory effect compared to D2; also recorded: acceptable range of viral inhibition
"7,7′-dihexyl-10,10′-dimethyl-8,8′-dioxo-3,3′-bis(p-tolyl)-4,4′-spirobi[5-oxa-2,7-diaza-3-azonia-4λ^4-cuprabicyclo[4.4.0]deca-1(6),2,9-triene]-9,9′-dicarbonitrile [Complex D2]",low toxicity,active antiviral activity; also recorded: significant antiviral activity,acceptable range of viral inhibition
